Among the data in ChEMBL document CHEMBL2311264, “Synthesis and anticancer activity of heteroaromatic linked 4β-amido podophyllotoxins as apoptotic inducing agents” (Bioorg Med Chem Lett, 2013) are IC50 and Activity values, retold here.

The test system of assay [1] is HeLa. Briefly: Cytotoxicity against human HeLa cells […] by MTT assay. In kind it is functional, cell-based. On the technique in general: Tetrazolium assays rely on reduction of a dye to a coloured formazan, in cell work by metabolically active cells.
Assay [2] relates to ACHN. Briefly: Cytotoxicity against human ACHN cells […] by MTT assay. In kind it is functional, cell-based.
Assay [3] has as its system B16. Briefly: Cytotoxicity against mouse B16 cells […] by MTT assay. The format is functional, cell-based.
The test system of assay [4] is HT-29. Briefly: Cytotoxicity against human HT-29 cells after 72 hrs by MTT assay. In kind it is functional, cell-based. To be noted: HT-29, 72 h.
The test system of assay [5] is A549. Briefly: Cytotoxicity against human A549 cells […] by MTT assay. In kind it is functional, cell-based.
For assay [6], the system named is A549. Briefly: Induction of cell cycle arrest in human A549 cells assessed as G2/M phase cells at 1 uM by FACS analysis (reference value: 9.89%). In kind it is functional. (In general: In flow cytometry, cells or beads pass a laser one at a time.)
For assay [7], the system named is A549. Briefly: Induction of cell cycle arrest in human A549 cells assessed as S phase cells at 1 uM by FACS analysis (reference value: 3.69%). In kind it is functional.
Assay [8] has as its system A549. Briefly: Induction of cell cycle arrest in human A549 cells assessed as G1 phase cells at 1 uM by FACS analysis (reference value: 85.33%). In kind it is functional.
For assay [9], the system named is A549. Briefly: Induction of cell cycle arrest in human A549 cells assessed as sub G1 phase cells at 1 uM by FACS analysis (reference value: 1.08%). The format is functional.

As to `COc1cc(-c2cc(C(=O)N[C@@H]3c4cc5c(cc4[C@@H](c4cc(OC)c(OC)c(OC)c4)[C@H]4C(=O)OC[C@@H]43)OCO5)no2)cc(OC)c1OC`, the IC50 is 18.4 µM in assay [1]; 34.2 µM in [2]; 23.4 µM in assay [3]; 25.1 µM in assay [4]; 19.8 µM in assay [5].
Take `COc1cc([C@@H]2c3cc4c(cc3[C@@H](NC(=O)c3cc(-c5ccccc5)on3)[C@H]3COC(=O)[C@H]23)OCO4)cc(OC)c1OC`: the IC50 is 5.9 µM in assay [1]; 17.5 µM in assay [2]; 16.3 µM in assay [3]; 19.5 µM in assay [4]; 13.6 µM in assay [5].
On to `COc1cc([C@@H]2c3cc4c(cc3[C@@H](NC(=O)c3cc(-c5ccc(Cl)c(Cl)c5)on3)[C@H]3COC(=O)[C@H]23)OCO4)cc(OC)c1OC`, for which the IC50 in assay [1] is 12.6 µM; in assay [2] it was 16.8 µM; in assay [3] it was 22.7 µM; in assay [4], 11.2 µM; in [5] it was 31.1 µM.
In the case of `COc1cc([C@@H]2c3cc4c(cc3[C@@H](NC(=O)c3cc(-c5ccccc5)[nH]n3)[C@H]3COC(=O)[C@H]23)OCO4)cc(OC)c1OC`, the IC50 is 7.5 µM in assay [1]; 30.2 µM in assay [2]; 16.3 µM in [3]; 26.5 µM in assay [4]; 28.9 µM in assay [5].
For `COc1cc([C@@H]2c3cc4c(cc3[C@@H](NC(=O)c3cc(-c5ccc(C)cc5)on3)[C@H]3COC(=O)[C@H]23)OCO4)cc(OC)c1OC`, the IC50 in [1] was 5.26 µM; in assay [2], 28.5 µM; in [3], 20.3 µM; in assay [4] it was 27.9 µM; in assay [5], 24.7 µM.
Consider `COc1cc([C@@H]2c3cc4c(cc3[C@@H](NC(=O)c3cc(-c5ccc([N+](=O)[O-])cc5)[nH]n3)[C@H]3COC(=O)[C@H]23)OCO4)cc(OC)c1OC`, for which the IC50 in assay [1] was determined as 14.6 µM; in assay [2], 23.5 µM; in assay [4] it was 20.6 µM; in assay [5] it was 19.4 µM.
`COc1ccc(-c2cc(C(=O)N[C@@H]3c4cc5c(cc4[C@@H](c4cc(OC)c(OC)c(OC)c4)[C@H]4C(=O)OC[C@@H]43)OCO5)no2)cc1OC`: the IC50 in assay [1] was found to be 13.3 µM; in [2] it was 23.1 µM; in assay [3], 12.7 µM; in assay [4] it was 38.4 µM; in assay [5] it was 23.1 µM.
`COc1ccc(-c2cc(C(=O)N[C@@H]3c4cc5c(cc4[C@@H](c4cc(OC)c(OC)c(OC)c4)[C@H]4C(=O)OC[C@@H]43)OCO5)n[nH]2)cc1OC`: the IC50 worked out at 25.1 µM in assay [1]; 31.6 µM in assay [2]; 45.3 µM in [3]; 36.3 µM in assay [4]; 39.5 µM in assay [5].
For `COc1cc([C@@H]2c3cc4c(cc3[C@@H](NC(=O)c3cc(-c5ccc([N+](=O)[O-])cc5)n5nc(-c6ccccc6)cc5n3)[C@H]3COC(=O)[C@H]23)OCO4)cc(OC)c1OC`, in that order: 12.1 µM, 17.7 µM, 18.4 µM, 10.9 µM and 10.6 µM.
As to `COc1cc(-c2cc(C(=O)N[C@@H]3c4cc5c(cc4[C@@H](c4cc(OC)c(OC)c(OC)c4)[C@H]4C(=O)OC[C@@H]43)OCO5)nc3cc(-c4ccccc4)nn23)cc(OC)c1OC`, the IC50 in [1] turned out to be 13.7 µM; in assay [2], 13.8 µM; in assay [3], 12.7 µM; in [4], 9.2 µM; in assay [5] it was 9.5 µM.
`COc1cc([C@@H]2c3cc4c(cc3[C@H](O)[C@H]3COC(=O)[C@H]23)OCO4)cc(OC)c1OC` [PODOFILOX]: the Activity amounted to 16.24% in assay [6], 3.67% in [7], 78.31% in assay [8] and 1.83% in [9]. Also, the IC50 in assay [1] was 2.8 µM; in [2], 2.3 µM; in assay [3] it was 2.5 µM; in assay [4] it was 1.02 µM; in assay [5] it was 3.6 µM.
As to `COc1ccc(-c2cc(C(=O)N[C@@H]3c4cc5c(cc4[C@@H](c4cc(OC)c(OC)c(OC)c4)[C@H]4C(=O)OC[C@@H]43)OCO5)n[nH]2)cc1`, the IC50 in assay [1] worked out at 9.4 µM; in assay [2] it was 11.6 µM; in assay [3], 9.5 µM; in assay [4], 8.4 µM; in [5], 5.3 µM.
For `COc1cc([C@@H]2c3cc4c(cc3[C@@H](NC(=O)c3cc(-c5ccc(C)cc5)[nH]n3)[C@H]3COC(=O)[C@H]23)OCO4)cc(OC)c1OC`, the concentration for half-maximal inhibition (IC50) in assay [1] was 16.9 µM; in assay [2], 25.8 µM; in assay [3] it was 16.6 µM; in [4], 26.5 µM; in assay [5], 22.3 µM.
For the molecule `COc1cc([C@@H]2c3cc4c(cc3[C@@H](NC(=O)c3cc(-c5ccc([N+](=O)[O-])cc5)on3)[C@H]3COC(=O)[C@H]23)OCO4)cc(OC)c1OC`, the IC50 in [1] was determined as 7.5 µM; in assay [2], 26.4 µM; in assay [3], 16.8 µM; in [4] it was 22.6 µM; in [5] it was 17.9 µM.
On to `COc1ccc(-c2cc(C(=O)N[C@@H]3c4cc5c(cc4[C@@H](c4cc(OC)c(OC)c(OC)c4)[C@H]4C(=O)OC[C@@H]43)OCO5)no2)cc1`, for which the IC50 in assay [1] stood at 11.2 µM; in assay [2] it was 30.3 µM; in assay [3], 22.5 µM; in assay [4], 32.1 µM; in [5] it was 38.1 µM.
For `COc1cc(-c2cc(C(=O)N[C@@H]3c4cc5c(cc4[C@@H](c4cc(OC)c(OC)c(OC)c4)[C@H]4C(=O)OC[C@@H]43)OCO5)n[nH]2)cc(OC)c1OC`, in that order: 11.5 µM, 27.1 µM, 18.3 µM, 16.8 µM and 15.2 µM.
On to `COc1ccc(-c2cc(C(=O)N[C@@H]3c4cc5c(cc4[C@@H](c4cc(OC)c(OC)c(OC)c4)[C@H]4C(=O)OC[C@@H]43)OCO5)nc3cc(-c4ccccc4)nn23)cc1OC`, for which the half-inhibitory concentration (IC50) was found to be 14.4 µM in assay [1]; 19.3 µM in assay [2]; 10.7 µM in assay [3]; 14.5 µM in assay [4]; 17.3 µM in [5].
For `COc1cc([C@@H]2c3cc4c(cc3[C@@H](NC(=O)c3cc(-c5ccc(F)c(F)c5)[nH]n3)[C@H]3COC(=O)[C@H]23)OCO4)cc(OC)c1OC`, in that order: 14.9 µM, 32.5 µM, 25.6 µM, 10.8 µM and 15.8 µM.
`COc1cc([C@@H]2c3cc4c(cc3[C@@H](NC(=O)c3cc(-c5ccc(F)cc5)[nH]n3)[C@H]3COC(=O)[C@H]23)OCO4)cc(OC)c1OC`: the IC50 in assay [1] came to 15.2 µM; in assay [2], 18.3 µM; in assay [3] it was 26.1 µM; in [4] it was 26.3 µM; in assay [5] it was 21.2 µM.
For the molecule `COc1cc([C@@H]2c3cc4c(cc3[C@@H](NC(=O)c3cc(-c5ccc(F)c(F)c5)on3)[C@H]3COC(=O)[C@H]23)OCO4)cc(OC)c1OC`, the IC50 amounted to 21.2 µM in assay [1]; 16.4 µM in [2]; 27.5 µM in assay [3]; 14.1 µM in [4]; 12.7 µM in assay [5].
`COc1cc([C@@H]2c3cc4c(cc3[C@@H](NC(=O)c3cc(-c5ccc(F)cc5)on3)[C@H]3COC(=O)[C@H]23)OCO4)cc(OC)c1OC`: the IC50 in assay [1] was found to be 16.6 µM; in [2], 15.6 µM; in assay [3] it was 23.5 µM; in assay [4] it was 19.9 µM; in assay [5], 20.6 µM.
For `COc1ccc(-c2cc(C(=O)N[C@@H]3c4cc5c(cc4[C@@H](c4cc(OC)c(OC)c(OC)c4)[C@H]4C(=O)OC[C@@H]43)OCO5)nc3cc(-c4ccccc4)nn23)cc1`, in that order: 8.9 µM, 17.3 µM, 18.3 µM, 5.7 µM and 11.2 µM.

A word on the IC50: it is the concentration that gives 50% inhibition. A lower IC50 goes with greater potency in that assay.
